Data as given in patent publication US9469650B2, “Melampomagnolide B derivatives” (BOARD OF TRUSTEES OF THE UNIVERSITY OF ARKANSAS, priority 2013, dated 2016).

Columns and labels:
A498 = test: panel of 60 human tumor cell lines, growth inhibition (Renal Cancer); conditions: A498
CAKI-1 = test: as above; conditions: CAKI-1
HS 578T = test: panel of 60 human tumor cell lines, growth inhibition (Breast Cancer); conditions: HS 578T
OVCAR-5 = test: panel of 60 human tumor cell lines, growth inhibition (Ovarian Cancer); conditions: OVCAR-5
NCI/ADR-RES = test: as above
PC-3 = test: panel of 60 human tumor cell lines, growth inhibition (Prostate Cancer); conditions: PC-3
DU-145 = test: as above; conditions: DU-145
HOP-62 = test: panel of 60 human tumor cell lines, growth inhibition (Non-Small Cell Lung Cancer); conditions: HOP-62
NCI-H226 = test: as above; conditions: NCI-H226
NCI-H522 = test: as above; conditions: NCI-H522

C=C1C(=O)O[C@H]2[C@H]1CC/C(COC(=O)NC)=C\CC[C@@]1(C)O[C@@H]21 [JVM 2-57]
Percent Growth (A498; Log10 Concentration −7.0): 70% | Percent Growth (A498; Log10 Concentration −8.0): 71% | GI50 (A498; NCI five dose): 2.97 µM | TGI (A498; NCI five dose): 1.84E−5 | Percent Growth (CAKI-1; Log10 Concentration −4.0): −97% | Percent Growth (CAKI-1; Log10 Concentration −5.0): 10% | Percent Growth (CAKI-1; Log10 Concentration −6.0): 82% | Percent Growth (CAKI-1; Log10 Concentration −7.0): 89% | Percent Growth (CAKI-1; Log10 Concentration −8.0): 96% | GI50 (CAKI-1; NCI five dose): 2.78 µM | TGI (CAKI-1; NCI five dose): 1.25E−5 | Percent Growth (HS 578T; Log10 Concentration −4.0): 7% | Percent Growth (HS 578T; Log10 Concentration −5.0): 65% | Percent Growth (HS 578T; Log10 Concentration −6.0): 87% | Percent Growth (HS 578T; Log10 Concentration −7.0): 92% | Percent Growth (HS 578T; Log10 Concentration −8.0): 91% | GI50 (HS 578T; NCI five dose): 18.4 µM | TGI (HS 578T; NCI five dose): >1.00E−4 | Percent Growth (OVCAR-5; Log10 Concentration −4.0): −90% | Percent Growth (OVCAR-5; Log10 Concentration −5.0): 24% | Percent Growth (OVCAR-5; Log10 Concentration −6.0): 86% | Percent Growth (OVCAR-5; Log10 Concentration −7.0): 84% | Percent Growth (OVCAR-5; Log10 Concentration −8.0): 93% | GI50 (OVCAR-5; NCI five dose): 3.82 µM | TGI (OVCAR-5; NCI five dose): 1.62E−5 | Percent Growth (NCI/ADR-RES; Log10 Concentration −4.0): −27% | Percent Growth (NCI/ADR-RES; Log10 Concentration −5.0): 60% | Percent Growth (NCI/ADR-RES; Log10 Concentration −6.0): 99% | Percent Growth (NCI/ADR-RES; Log10 Concentration −7.0): 101% | Percent Growth (NCI/ADR-RES; Log10 Concentration −8.0): 95% | GI50 (NCI/ADR-RES; NCI five dose): 13.1 µM | TGI (NCI/ADR-RES; NCI five dose): 4.89E−5 | Percent Growth (PC-3; Log10 Concentration −4.0): −70% | Percent Growth (PC-3; Log10 Concentration −5.0): 67% | Percent Growth (PC-3; Log10 Concentration −6.0): 96% | Percent Growth (PC-3; Log10 Concentration −7.0): 97% | Percent Growth (PC-3; Log10 Concentration −8.0): 98% | GI50 (PC-3; NCI five dose): 13.3 µM | TGI (PC-3; NCI five dose): 3.08E−5 | Percent Growth (DU-145; Log10 Concentration −4.0): −97% | Percent Growth (DU-145; Log10 Concentration −5.0): 19% | Percent Growth (DU-145; Log10 Concentration −6.0): 93% | Percent Growth (DU-145; Log10 Concentration −7.0): 103% | Percent Growth (DU-145; Log10 Concentration −8.0): 104% | GI50 (DU-145; NCI five dose): 3.78 µM | TGI (DU-145; NCI five dose): 1.45E−5 | Percent Growth (HOP-62; Log10 Concentration −4.0): −86% | Percent Growth (HOP-62; Log10 Concentration −5.0): 72% | Percent Growth (HOP-62; Log10 Concentration −6.0): 92% | Percent Growth (HOP-62; Log10 Concentration −7.0): 86% | Percent Growth (HOP-62; Log10 Concentration −8.0): 95% | GI50 (HOP-62; NCI five dose): 13.9 µM | TGI (HOP-62; NCI five dose): 2.87E−5 | Percent Growth (NCI-H226; Log10 Concentration −4.0): −52% | Percent Growth (NCI-H226; Log10 Concentration −5.0): 49% | Percent Growth (NCI-H226; Log10 Concentration −6.0): 86% | Percent Growth (NCI-H226; Log10 Concentration −7.0): 101% | Percent Growth (NCI-H226; Log10 Concentration −8.0): 92% | GI50 (NCI-H226; NCI five dose): 9.29 µM | TGI (NCI-H226; NCI five dose): 3.06E−5 | Percent Growth (NCI-H522; Log10 Concentration −4.0): −74% | Percent Growth (NCI-H522; Log10 Concentration −5.0): −73% | Percent Growth (NCI-H522; Log10 Concentration −6.0): 68% | Percent Growth (NCI-H522; Log10 Concentration −7.0): 87% | Percent Growth (NCI-H522; Log10 Concentration −8.0): 89% | GI50 (NCI-H522; NCI five dose): 1.33 µM | TGI (NCI-H522; NCI five dose): 3.02E−6
